We go through three compounds from publication PMC8609367 (mBio, 2021).

≈ marks a conversion by molar mass, not a printed value. Where “and” joins values, the source holds several entries; their conditions need not be identical. Equal values may be shown once.

As a reminder, the Kd is the free concentration of one partner at which half of the binding sites on the other are occupied at equilibrium, for simple one-to-one binding. A lower Kd goes with higher affinity. The MIC is the smallest concentration in the dilution series that meets the test's criterion for growth inhibition.

One data set deals with T1, McFKBP12 (Mucor circinelloides, UniProt U3N5X4).
T1 sequence (U3N5X4 1-108): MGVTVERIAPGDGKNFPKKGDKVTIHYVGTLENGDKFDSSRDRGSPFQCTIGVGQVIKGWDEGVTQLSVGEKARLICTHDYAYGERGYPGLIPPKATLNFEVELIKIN
Nature of the data set: ITC binding to M. circinelloides FKBP12. The following applies: for Kd / Stoichiometry / TΔS / ΔG° / ΔH: ITC, 25°C, average from triplicates. Here is the method: (§1) The lower panel represents the integrated heat changes upon binding (kilocalories/mole) corrected for the protein and ligand heat of dilution. Fitting was performed using the MicroCal Origin software. Download FIG S2, TIF file, 0.9 MB.
(§2) After the size exclusion purification, the proteins were concentrated to ∼2 mg/ml using a 3,000-MWCO Amicon concentrator. Proteins were exhaustively dialyzed at 4°C in the isothermal titration calorimetry (ITC) buffer (50 mM sodium phosphate, 50 mM sodium chloride, pH 7.0). Experiments were performed using a VP-ITC instrument (MicroCal Inc., Northampton, MA) at 25°C. All solutions were degassed under vacuum at 25°C for 15 min immediately before use. […] was loaded into the syringe at a concentration of 25 μM and titrated in by a first injection of 2 μl followed by 22 injections of 6 μl. Following each injection, the cell was equilibrated for 3 min. […] The proteins were loaded in the cell at a concentration of 10 μM with constant stirring at 307 rpm (25°C). […] The enthalpy of binding (ΔH, kilocalories/mole) was determined by integration of the injection peaks minus the controls for the heat of dilution (equivalent experiments without the ligand and without the protein). The MicroCal Origin software (OriginLab Corp., Northampton, MA) was used for a variety of binding models.

Another data set concerns Cryptococcus neoformans. More on the design: method as in PMID 31537789. The following applies: C. neoformans; cited from earlier work.
For data set [1], the system named is cryptococcal model of invasive fungal infection. More on the design: method as in PMID 31537789. The following applies: murine model; cited from earlier work.
For another data set, the target named is T2, AfFKBP12 (Aspergillus fumigatus, UniProt Q4WLV6).
T2 construct: His6 (thrombin-cleavable) (N, cleaved yes); made in house; host or cells: E. coli BL21(DE3)
T2 sequence (Q4WLV6 1-112): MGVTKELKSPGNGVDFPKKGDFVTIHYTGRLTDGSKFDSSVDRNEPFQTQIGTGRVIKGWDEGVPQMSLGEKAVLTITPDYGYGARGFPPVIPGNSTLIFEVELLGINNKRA
Nature of the data set: biochemical. The class given is binding. The following applies: for TΔS / ΔG° / ΔH / Stoichiometry / Kd: ITC, 25°C, average from triplicates; for Stoichiometry: ligand-FKBP12. Here is the method: as §1, §2

Data set [2] deals with interleukin-2 (IL-2) production in primary murine CD4+ T cells. Also noted: method as in PMID 31537789. To be noted: reduction of IL-2 production in primary murine CD4+ T cells; cited from earlier work.
The next data set concerns Candida albicans. More on the design: method as in PMID 31537789. The following applies: in vitro; cited from earlier work.
The next data set addresses T3, hFKBP12 (Homo sapiens, UniProt P62942).
T3 construct: His6 (thrombin-cleavable) (N, cleaved yes); made in house; host or cells: E. coli BL21(DE3)
Nature of the data set: ITC binding to human FKBP12. Here is the method:
as §1, §2

A short description of data set [3]: Solubility noted in ITC set-up. The following applies: restricting the usable concentration in ITC. It is filed as physicochemical. How it is done: as §2
Data set [4] deals with T helper cell-dependent germinal center B cell response. Also noted: method as in PMID 31537789. The following applies: cited from earlier work.
Data set [5] has as its system A. fumigatus strains expressing McFKBP12 or McFKBP12-Y88F. In words: Growth assay of A. fumigatus strains expressing FKBP12 variants in presence of FK506. The class given is cell-based, Aspergillus fumigatus.
Description: A. fumigatus wild-type strain akuB^KU80 was used for growth and recombinant strain generation experiments. A. fumigatus wild-type or recombinant strains were cultured on glucose minimal medium (GMM) or RPMI liquid medium at 37°C for 24- or 48-h- periods. […] All growth experiments were repeated as technical triplicates, each also as biological triplicates.
A further data set concerns FKBP12. More on the design: method as in PMID 1380976. To be noted: cited from earlier work.
Details of data set [6]: method as in PMID 1380976. The following applies: cited from earlier work.
On the set-up of data set [7]: method as in PMID 1380976. To be noted: cited from earlier work. The source holds these as a separate data set.
The mark [8] stands for this setting: ITC, 25°C, average from triplicates.

T3 sequence (P62942 whole entry): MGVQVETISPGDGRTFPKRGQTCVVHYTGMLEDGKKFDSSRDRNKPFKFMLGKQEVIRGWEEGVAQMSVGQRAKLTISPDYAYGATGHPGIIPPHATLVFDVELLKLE

Consider `C=CCC1C=C(C)CC(C)CC(OC)C2OC(O)(C(=O)C(=O)N3CCCCC3C(=O)OC(C(C)=CC3CCC(O)C(OC)C3)C(C)C(O)CC1=NNC(C)=O)C(C)CC2OC` (stereo not drawn) [APX879], for which the “Reduction in affinity compared to FK506” value at McFKBP12 (ITC KD, APX879 versus FK506) is on record as about 40 fold; on AfFKBP12 (ITC KD, APX879 versus FK506), 100 fold; on hFKBP12 (ITC KD, APX879 versus FK506) it was about 40 fold. Besides, the Kd on McFKBP12 is ~120 nM and 126 nM; on AfFKBP12, 462 nM; at hFKBP12 (setting [8]), ~120 nM and 119 nM. The Stoichiometry on McFKBP12 is 0.93 ± 0.17; on AfFKBP12 it was 1.96 ± 0.13; on hFKBP12 (setting [8]), 1.41 ± 0.03. Moreover, the TΔS at McFKBP12 was 7.4 ± 0.2 kcal/mol; at AfFKBP12, 7.2 ± 1.0 kcal/mol; at hFKBP12 (setting [8]), 7.4 ± 0.8 kcal/mol. In addition, the entries for the “ΔG°” value at McFKBP12, on AfFKBP12 and at hFKBP12 (setting [8]) were -9.4 ± 0.2 kcal/mol, -8.0 ± 1.0 kcal/mol and -9.2 ± 0.9 kcal/mol, respectively. Moreover, the ΔH at McFKBP12 was -2.0 ± 0.1 kcal/mol; at AfFKBP12, -1.2 ± 0.4 kcal/mol; at hFKBP12 (setting [8]) it was -1.8 ± 0.4 kcal/mol. Also, in the data set on Cryptococcus neoformans, the “Reduction in antifungal efficacy compared to FK506” value is 17 fold. Further, the “Efficacy in cryptococcal model” value in data set [1] is “confirmed efficacy”. In addition, the “Reduced immunosuppressive activity compared to FK506” value in [2] is recorded as 71 fold. The MIC in the data set on Candida albicans is 8 µg/mL (≈ 9.3 µM). The Solubility entry in [3] is “low solubility”. Moreover, in data set [4] (in comparison to FK506 treatment, animal models), the “Ability to stimulate T helper cell-dependent germinal center B cell response” value was “significant reduction”. Besides, the “Immunosuppressive activity in vivo” value in [4] (murine model) is reported as “reduced immunosuppressive activity”.
Regarding `C=CC[C@@H]1/C=C(\C)C[C@H](C)C[C@H](OC)[C@H]2O[C@@](O)(C(=O)C(=O)N3CCCC[C@H]3C(=O)O[C@H](/C(C)=C/[C@@H]3CC[C@@H](O)[C@H](OC)C3)[C@H](C)[C@@H](O)CC1=O)[C@H](C)C[C@@H]2OC` [FK506, reference compound], at McFKBP12, the Kd is 3 ± 0.7 nM, the Stoichiometry came to 1.06 ± 0.06, the TΔS is recorded as 1.9 ± 0.2 kcal/mol and the “ΔG°” value is -11.7 ± 0.2 kcal/mol. The ΔH on McFKBP12 is -9.8 ± 0.1 kcal/mol. Further, at AfFKBP12, the TΔS is 4.6 ± 0.3 kcal/mol, the “ΔG°” value is -11.3 ± 0.4 kcal/mol, the ΔH is -6.7 ± 0.3 kcal/mol and the Stoichiometry is 2.02 ± 0.06. Moreover, at AfFKBP12, the Kd stood at 4.7 ± 0.6 nM. Also, the “FK506 sensitivity of A. fumigatus strain expressing McFKBP12” value in data set [5] (Affkbp12 locus replaced with Mcfkbp12, increasing concentrations of FK506) is listed as “does not restore A. fumigatus FK506 sensitivity”. Also, in data set [5] (McFKBP12-Y88F mutant), the “FK506 sensitivity of A. fumigatus strain expressing McFKBP12-Y88F” value is listed as “restoration of FK506 sensitivity”. Further, on hFKBP12 (setting [8]), the Stoichiometry amounted to 1.09 ± 0.03, the TΔS is -3.3 ± 1.2 kcal/mol, the “ΔG°” value is -12.0 ± 1.6 kcal/mol and the ΔH was -15.0 ± 1.1 kcal/mol. Also, the “Toxicity in animal models” value in data set [4] (animal models) is recorded as “acute toxicity”.
`CC[C@@H]1/C=C(\C)[C@@H](O)[C@H](C)C[C@H](OC)[C@H]2O[C@@](O)(C(=O)C(=O)N3CCCC[C@H]3C(=O)O[C@H](/C(C)=C/[C@@H]3CC[C@@H](O)[C@H](OC)C3)[C@H](C)[C@@H](O)CC1=O)[C@H](C)C[C@@H]2OC` [L-685,818]: in the data set with FKBP12, the “Binding to FKBP12” value was “still binds to FKBP12”. Further, the Immunosuppressive activity result in data set [6] is “nonimmunosuppressive”. For the same compound, in data set [7], the Antifungal activity result is “retains antifungal activity”.
